Results from ChEMBL document CHEMBL1149340, “Optimization and SAR for dual ErbB-1/ErbB-2 tyrosine kinase inhibition in the 6-furanylquinazoline series” (Bioorg Med Chem Lett, 2006).

Legend:
HN5 = experiment: cells; conditions: Homo sapiens, HN5, 72 h
Description: Inhibition of HN5 cell growth after 72 hrs

[1] = target: Epidermal growth factor receptor (Homo sapiens, UniProt P00533)
NCI-N87 = experiment: Inhibition of N87 cell growth after 72 hrs; type: functional, cell-based; conditions: Homo sapiens, NCI-N87, 72 h
[2] = target: Receptor tyrosine-protein kinase erbB-2 (Homo sapiens, UniProt P04626)
Sequence of Receptor tyrosine-protein kinase erbB-2 (P04626 whole entry): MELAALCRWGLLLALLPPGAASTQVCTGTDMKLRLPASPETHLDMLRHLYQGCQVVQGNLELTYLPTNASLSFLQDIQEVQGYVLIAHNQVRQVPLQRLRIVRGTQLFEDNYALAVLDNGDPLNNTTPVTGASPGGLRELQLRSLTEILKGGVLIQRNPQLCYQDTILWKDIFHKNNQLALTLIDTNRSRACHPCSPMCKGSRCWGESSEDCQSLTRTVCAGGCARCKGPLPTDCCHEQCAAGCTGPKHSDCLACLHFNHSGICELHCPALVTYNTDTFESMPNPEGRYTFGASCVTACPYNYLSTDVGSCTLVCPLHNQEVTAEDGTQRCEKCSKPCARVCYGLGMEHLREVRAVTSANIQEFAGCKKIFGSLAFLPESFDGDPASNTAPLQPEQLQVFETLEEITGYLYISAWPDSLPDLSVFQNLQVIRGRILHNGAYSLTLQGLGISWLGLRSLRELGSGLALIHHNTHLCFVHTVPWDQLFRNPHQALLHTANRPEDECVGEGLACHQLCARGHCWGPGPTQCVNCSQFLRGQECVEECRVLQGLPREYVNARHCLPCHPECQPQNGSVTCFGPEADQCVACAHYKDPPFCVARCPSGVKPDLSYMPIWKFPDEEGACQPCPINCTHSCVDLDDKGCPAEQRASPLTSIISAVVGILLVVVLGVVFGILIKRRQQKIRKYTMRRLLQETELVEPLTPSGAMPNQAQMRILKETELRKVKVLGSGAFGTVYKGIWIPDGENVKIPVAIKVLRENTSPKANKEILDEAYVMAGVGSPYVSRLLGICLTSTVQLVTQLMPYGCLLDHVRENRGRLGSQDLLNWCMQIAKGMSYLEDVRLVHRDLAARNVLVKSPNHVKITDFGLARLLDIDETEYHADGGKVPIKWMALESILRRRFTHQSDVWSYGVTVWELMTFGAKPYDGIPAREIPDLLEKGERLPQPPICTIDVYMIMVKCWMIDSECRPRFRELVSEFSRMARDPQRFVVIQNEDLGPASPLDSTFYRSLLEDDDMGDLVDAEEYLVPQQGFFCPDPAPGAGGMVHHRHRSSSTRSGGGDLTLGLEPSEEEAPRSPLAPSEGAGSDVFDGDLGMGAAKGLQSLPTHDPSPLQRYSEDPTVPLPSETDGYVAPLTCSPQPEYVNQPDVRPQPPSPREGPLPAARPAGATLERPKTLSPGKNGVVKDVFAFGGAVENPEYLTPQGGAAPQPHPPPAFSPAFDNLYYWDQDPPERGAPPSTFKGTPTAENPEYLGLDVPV

BT-474 = experiment: Inhibition of BT474 cell growth after 72 hrs; type: functional, cell-based; conditions: Homo sapiens, BT-474, 72 h
HFF = experiment: Inhibition of HFF cell growth; conditions: Homo sapiens

Sequence of Epidermal growth factor receptor (P00533 whole entry): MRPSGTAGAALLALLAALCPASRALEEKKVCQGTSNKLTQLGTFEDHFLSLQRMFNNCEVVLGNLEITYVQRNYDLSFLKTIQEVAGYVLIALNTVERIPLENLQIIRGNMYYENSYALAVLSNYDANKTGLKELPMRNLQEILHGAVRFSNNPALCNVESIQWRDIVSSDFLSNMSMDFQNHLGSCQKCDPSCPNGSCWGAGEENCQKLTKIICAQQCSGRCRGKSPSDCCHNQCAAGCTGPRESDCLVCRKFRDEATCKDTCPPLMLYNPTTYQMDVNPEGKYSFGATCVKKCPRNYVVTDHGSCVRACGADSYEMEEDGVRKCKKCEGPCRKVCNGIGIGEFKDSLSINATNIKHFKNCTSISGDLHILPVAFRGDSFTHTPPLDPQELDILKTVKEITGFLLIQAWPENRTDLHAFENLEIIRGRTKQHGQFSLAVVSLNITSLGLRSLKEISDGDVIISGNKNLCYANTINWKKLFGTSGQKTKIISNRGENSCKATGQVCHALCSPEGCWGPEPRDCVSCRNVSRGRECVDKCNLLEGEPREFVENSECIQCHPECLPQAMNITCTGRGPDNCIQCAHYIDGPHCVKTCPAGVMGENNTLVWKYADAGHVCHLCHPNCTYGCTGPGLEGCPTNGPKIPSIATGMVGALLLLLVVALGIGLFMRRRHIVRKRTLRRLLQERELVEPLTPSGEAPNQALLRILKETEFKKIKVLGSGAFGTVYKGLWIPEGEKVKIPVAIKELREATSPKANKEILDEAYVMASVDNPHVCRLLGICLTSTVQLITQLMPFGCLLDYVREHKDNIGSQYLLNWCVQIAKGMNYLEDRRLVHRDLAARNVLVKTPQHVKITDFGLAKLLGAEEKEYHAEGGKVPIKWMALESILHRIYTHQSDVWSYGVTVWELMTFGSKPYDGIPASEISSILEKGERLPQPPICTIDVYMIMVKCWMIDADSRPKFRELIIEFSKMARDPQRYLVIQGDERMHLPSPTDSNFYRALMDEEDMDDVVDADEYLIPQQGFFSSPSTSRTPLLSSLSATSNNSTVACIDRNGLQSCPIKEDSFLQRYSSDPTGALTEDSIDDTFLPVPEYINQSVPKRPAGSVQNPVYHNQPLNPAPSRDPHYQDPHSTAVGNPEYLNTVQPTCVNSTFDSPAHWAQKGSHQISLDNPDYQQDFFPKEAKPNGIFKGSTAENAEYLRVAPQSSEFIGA

| Structure (SMILES) | IC50 (HN5) | IC50 [1] | IC50 [2] | IC50 (BT-474) | IC50 (NCI-N87) | IC50 (HFF) |
| --- | --- | --- | --- | --- | --- | --- |
| O=S(=O)(CCNCc1ccc(-c2ccc3ncnc(Nc4ccc(OCc5cccc(F)c5)c(Cl)c4)c3c2)o1)c1ccccc1 | 1070 nM | 19 nM | 30 nM | 1040 nM | 870 nM |  |
| O=S(=O)(CCCCNCc1ccc(-c2ccc3ncnc(Nc4ccc(OCc5ccccc5)c(Cl)c4)c3c2)o1)c1ccccc1 |  | 50 nM | 38 nM |  |  |  |
| CS(=O)(=O)CCNCc1ccc(-c2ccc3ncnc(Nc4ccc(OCc5cccc(C(F)(F)F)c5)cc4)c3c2)o1 | 6900 nM | 91 nM | 360 nM | 4200 nM | 5200 nM |  |
| COc1cc(Nc2ncnc3ccc(-c4ccc(CNCCS(C)(=O)=O)o4)cc23)ccc1OCc1cccc(F)c1 |  |  |  | 2070 nM | 1900 nM |  |
| [O-][S+]1CCN(Cc2ccc(-c3ccc4ncnc(Nc5ccc(OCc6ccccc6)c(F)c5)c4c3)o2)CC1 | 1000 nM | 16 nM | 35 nM | 1200 nM | 1130 nM |  |
| [O-][S+]1CCN(Cc2ccc(-c3ccc4ncnc(Nc5ccc(OCc6cccc(F)c6)c(C(F)(F)F)c5)c4c3)o2)CC1 | 1110 nM | 89 nM | 141 nM | 3000 nM | 2090 nM |  |
| CCCS(=O)(=O)CCNCc1ccc(-c2ccc3ncnc(Nc4ccc(OCc5cccc(F)c5)c(Cl)c4)c3c2)o1 | 1600 nM | 21 nM | 26 nM | 3140 nM | 8660 nM |  |
| CS(=O)(=O)CCNCc1ccc(-c2ccc3ncnc(Nc4ccc(OCc5cccc(Br)c5)cc4)c3c2)o1 | 2560 nM | 43 nM | 100 nM | 2130 nM | 3460 nM |  |
| CS(=O)(=O)CCNCc1ccc(-c2ccc3ncnc(Nc4ccc(OCc5ccccc5)c(C(F)(F)F)c4)c3c2)o1 | 5900 nM | 160 nM | 200 nM | 10100 nM | 6500 nM |  |
| CS(=O)(=O)CCNCc1ccc(-c2ccc3ncnc(Nc4ccc(OCc5cccc(F)c5)c(C(F)(F)F)c4)c3c2)o1 [GW576484X] | 1940 nM | 80 nM | 220 nM | 4490 nM | 2890 nM |  |
| O=S(=O)(CCOCc1ccc(-c2ccc3ncnc(Nc4ccc(OCc5cccc(F)c5)c(Cl)c4)c3c2)o1)c1ccccc1 [GW615311X] |  | 25 nM | 28 nM |  |  |  |

The next lines start with results.

| IC50 (HN5) | IC50 [1] | IC50 [2] | IC50 (BT-474) | Structure (SMILES) | IC50 (NCI-N87) | IC50 (HFF) |
| --- | --- | --- | --- | --- | --- | --- |
|  | 85 nM | 20 nM | 250 nM | CCCN(CCS(C)(=O)=O)Cc1ccc(-c2ccc3ncnc(Nc4ccc(OCc5cccc(F)c5)c(Cl)c4)c3c2)o1 |  |  |
| 60 nM | 28 nM | 18 nM | 100 nM | [O-][S+]1CCN(Cc2ccc(-c3ccc4ncnc(Nc5ccc(OCc6cccc(F)c6)c(Cl)c5)c4c3)o2)CC1 | 80 nM | 8180 nM |
| 320 nM | 12 nM | 23 nM | 420 nM | [O-][S+]1CCN(Cc2ccc(-c3ccc4ncnc(Nc5ccc(OCc6ccccc6)c(Cl)c5)c4c3)o2)CC1 | 460 nM |  |
| 650 nM | 27 nM | 26 nM | 280 nM | CS(=O)(=O)CCNCc1ccc(-c2ccc3ncnc(Nc4ccc(OCc5ccccc5)cc4)c3c2)o1 | 870 nM |  |
| 840 nM | 24 nM | 31 nM | 770 nM | CS(=O)(=O)CCNCc1ccc(-c2ccc3ncnc(Nc4ccc(OCc5cccc(F)c5)cc4)c3c2)o1 | 860 nM |  |
|  |  | 24 nM | 200 nM | CC(C)S(=O)(=O)CCNCc1ccc(-c2ccc3ncnc(Nc4ccc(OCc5cccc(F)c5)c(Cl)c4)c3c2)o1 | 130 nM | > 30000 nM |
|  |  |  | 270 nM | CS(=O)(=O)CCNCc1ccc(-c2ccc3ncnc(Nc4ccc(OCc5ccccc5)c(Br)c4)c3c2)o1 | 370 nM |  |
|  | 26 nM | 17 nM | 170 nM | CS(=O)(=O)CCOCc1ccc(-c2ccc3ncnc(Nc4ccc(OCc5cccc(F)c5)c(Cl)c4)c3c2)o1 |  | > 30000 nM |
| 250 nM | 18 nM | 22 nM | 250 nM | CS(=O)(=O)CCNCc1ccc(-c2ccc3ncnc(Nc4ccc(OCc5ccccc5)c(Cl)c4)c3c2)o1 | 280 nM |  |
|  |  | 141 nM | 610 nM | CS(=O)(=O)CCN(Cc1ccccc1)Cc1ccc(-c2ccc3ncnc(Nc4ccc(OCc5cccc(F)c5)c(Cl)c4)c3c2)o1 |  |  |
|  | 27 nM | 22 nM | 67 nM | CS(=O)(=O)CCN(CC#N)Cc1ccc(-c2ccc3ncnc(Nc4ccc(OCc5cccc(F)c5)c(Cl)c4)c3c2)o1 [GW616030X] |  | > 30000 nM |
|  |  |  | 80 nM | CS(=O)(=O)CCNCc1ccc(-c2ccc3ncnc(Nc4ccc(OCc5cccc(F)c5)c(Cl)c4)c3c2)o1 [LAPATINIB] | 80 nM | 9900 nM |
